From EP0344564A1, “Utilisation of special amines or hindering nitrosamine production” (Eisenbrand, Gerhard, Prof. Dr., priority 1988, dated 1989)

Assay: Nitrosamine formation in aqueous amine / sodium nitrite mixture, comparison with THEDA (Beispiel 4)
Type: physicochemical
Settings: 20 mM Amin, 20 mM Natriumnitrit, 4 Stunden, 37 °C, pH 4

With `CC(O)CN(CCN(CC(C)O)CC(C)O)CC(C)O` (stereo not shown) [THEDA, N,N,N′,N′-Tetrakis(2-hydroxypropyl)ethylene-diamin] the “% gebildetes Nitrosamin bezogen auf eingesetztes Amin” value was 1,0%.
